Experimental data: US8053426B2, “Progesterone receptor antagonists” (Bayer Schering Pharma AG, priority 2006, dated 2011)

Experiments:
[1] = tested on: pregnant rats; assay: Abortion test on female rats; type: in vivo, rat; details: 1.5 mg/kg subcutaneously daily d5-d7 p.c., autopsy d9 p.c.
Protocol: The antigestagenic action of the progesterone receptor antagonists according to the invention was tested on pregnant rats (6 rats per group) on days 5 to 7 post coitum under conventional housing and feeding conditions.
After successful copulation, the pregnant animals (presence of sperm in the vaginal smear on day 1 of pregnancy=d1 p.c.) were randomized and divided up into the treatment group and the control group. Each animal was then injected subcutaneously with 1.5 mg/kg of the test substance (11β-[4-(1,2-Dihydroxyethyl)phenyl]-20,20,21,21,21-pentafluoro-17-hydroxy-19-nor-17α-pregna-4,9-dien-3-one according to Example 1 or 20,20,21,21,21-pentafluoro-17-hydroxy-11β-[4-(hydroxyacetyl)phenyl]-19-nor-17α-pregna-4,9-dien-3-one according to Example 3) or 1.0 ml/kg of vehicle (benzyl benzoate/castor oil: 1+4[v/v]) daily from day 5 to day 7 (d5-d7 p.c.).
The autopsy was performed on day 9 (d9 p.c.). As the parameter of antigestagenic action, the uterus was examined for the presence of implantation sites. The complete absence of implantation sites as well as the presence of pathological, hemorrhagic or otherwise abnormal implantation sites on day 9 (d9 p.c.) were evaluated as abortions.

[2] = tested on: 35-day-old rabbits; assay: Determination of the McPhail index on the rabbit; type: in vivo; details: 3 mg/kg/d test substance + 0.2 mg/kg/d progesterone s.c. day 7 to 10, autopsy day 11, 1=no, 4=maximum glandular differentiation
Protocol: The antigestagenic efficacy of the progesterone receptor antagonists according to the invention was tested on 35-day-old rabbits under conventional housing and feeding conditions.
As a preparatory measure, the animals were treated subcutaneously with 5.0 μg/kg/d with 17β-estradiol from day 1 to day 4. To determine the antigestagenic efficacy, the animals were treated subcutaneously from day 7 to day 10 with 0.2 mg/kg/d of progesterone and 3 mg/kg/d of the test substance (11β-[4-(1,2-Dihydroxyethyl)phenyl]-20,20,21,21,21-pentafluoro-17-hydroxy-19-nor-17α-pregna-4,9-dien-3-one according to Example 1 or 20,20,21,21,21-pentafluoro-17-hydroxy-11β-[4-(hydroxyacetyl)phenyl]-19-nor-17α-pregna-4,9-dien-3-one according to Example 3) simultaneously. The vehicle used was a mixture of benzyl benzoate and castor oil in a ratio of 1+4 (v/v).
The autopsy was performed on day 11 after the start of treatment. The uteri were removed and fixed for histology. The McPhail index (degree of glandular differentiation) was determined by means of light microscopy (evaluation: 1=no glandular differentiation; 4=maximum glandular differentiation) as the parameter of antigestagenic efficacy (inhibition of the glandular differentiation caused by progesterone).

[3] = Metabolic stability in human liver microsomes (HLM); type: in vitro ADME; details: 60 minutes, 37° C.
Protocol: Human liver microsomes (HLM) were used to assess the metabolic stability of substances of general formula I.
The incubations were carried out in duplicate with HLM and an NADPH-generating system using a shaker bath at 37° C. The incubation mixture (consisting of cofactor solution, potassium phosphate buffer and microsome preparation) was freshly prepared according to the Table below.
(§1) The incubation volume was 0.25 ml. The incubation mixture was preincubated for three minutes at 37° C. The reaction was started by the addition of the test substance (final concentration 50 μM). The reaction was ended after an incubation time of 60 minutes by the addition of 250 μl of methanol and the mixture was then centrifuged to pellet the protein. The samples were stored at −18° C. for subsequent RP-HPLC analysis.
as §1, with “concentration 10” for “concentration 50”

[4] = target: T1, human progesterone receptor A (PR-A) (Homo sapiens, UniProt P06401); assay: Agonistic activity, MTV-LUC reporter in SK-N-MC cells stably transfected with PR-A; type: cell-based; details: 24 hours; for Efficacy, PR-A: relative LUC activity
T1 construct: expressed in transfected cells; host or cells: SK-N-MC human neuroblastoma cells, stably transfected with pRChPR-A-neo and pMMTV-LUC
T1 sequence (P06401 1-769 isoform P06401-2): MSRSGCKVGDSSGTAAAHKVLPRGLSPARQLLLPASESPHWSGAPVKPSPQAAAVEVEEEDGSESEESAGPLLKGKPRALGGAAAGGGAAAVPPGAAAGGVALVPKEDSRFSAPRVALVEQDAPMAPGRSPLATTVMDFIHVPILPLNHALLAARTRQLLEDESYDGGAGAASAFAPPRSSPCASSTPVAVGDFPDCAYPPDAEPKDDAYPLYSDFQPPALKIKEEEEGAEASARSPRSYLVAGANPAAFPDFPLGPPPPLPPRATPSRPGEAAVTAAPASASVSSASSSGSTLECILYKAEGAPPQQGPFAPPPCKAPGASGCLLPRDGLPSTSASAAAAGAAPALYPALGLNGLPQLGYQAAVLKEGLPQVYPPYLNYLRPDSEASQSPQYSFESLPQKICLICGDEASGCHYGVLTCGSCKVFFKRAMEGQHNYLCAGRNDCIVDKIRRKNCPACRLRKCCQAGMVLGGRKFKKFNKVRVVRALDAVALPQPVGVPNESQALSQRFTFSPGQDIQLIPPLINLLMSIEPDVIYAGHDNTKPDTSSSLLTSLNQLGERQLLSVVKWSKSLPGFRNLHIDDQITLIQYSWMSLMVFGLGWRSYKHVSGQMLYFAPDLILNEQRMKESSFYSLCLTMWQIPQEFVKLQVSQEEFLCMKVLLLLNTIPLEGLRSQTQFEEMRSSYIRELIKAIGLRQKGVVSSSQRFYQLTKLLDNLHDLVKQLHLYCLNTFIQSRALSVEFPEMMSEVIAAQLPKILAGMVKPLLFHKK
Protocol: (§2) SK-N-MC cells (human neuroblastoma cells), stably transfected with plasmids, which express human progesterone receptor B (pRChPR-B-neo) or human progesterone receptor A (pRChPR-A-neo) and a reporter construct (pMMTV-LUC), were incubated for 24 hours, either in the absence (negative control) or in the presence of increasing amounts of 11β-[4-(1,2-dihydroxy-ethyl)phenyl]-20,20,21,21,21-pentafluoro-17-hydroxy-19-nor-17α-pregna-4,9-dien-3-one or 20,20,21,21,21-pentafluoro-17-hydroxy-11β-[4-(hydroxyacetyl)-phenyl]-19-nor-17α-pregna-4,9-dien-3-one (0.01 nmol/l, 0.1 nmol/l, 1 nmol/l, 10 nmol/l, 100 nmol/l and 1 μmol/l), in order to determine the agonistic efficacy. As a positive control of reporter gene induction, the cells were treated with the synthetic gestagen promegestone (0.01 nmol/l, 0.1 nmol/l, 1 nmol/l, 10 nmol/l, 100 nmol/l and 1 μmol/l). To determine the antagonistic activity, the cells were treated with 0.1 nmol/l of promegestone and additionally with increasing amounts of 11β-[4-(1,2-dihydroxyethyl)phenyl]-20,20,21,21,21-pentafluoro-17-hydroxy-19-nor-17α-pregna-4,9-dien-3-one or 20,20,21,21,21-pentafluoro-17-hydroxy-11β-[4-(hydroxyacetyl)phenyl]-19-nor-17α-pregna-4,9-dien-3-one (0.01 nmol/l, 0.1 nmol/l, 1 nmol/l, 10 nmol/l, 100 nmol/l and 1 μmol/l). […] The activity of the LUC reporter gene (LUC=luciferase) was determined in the cell lyzates and measured as RLU (relative light units).

[5] = target: T2, human progesterone receptor B (PR-B) (Homo sapiens, UniProt P06401); assay: Agonistic activity, MTV-LUC reporter in SK-N-MC cells stably transfected with PR-B; type: cell-based; details: 24 hours; for Efficacy, PR-B: relative LUC activity
T2 construct: expressed in transfected cells; host or cells: SK-N-MC human neuroblastoma cells, stably transfected with pRChPR-B-neo and pMMTV-LUC
T2 sequence (P06401 1-933): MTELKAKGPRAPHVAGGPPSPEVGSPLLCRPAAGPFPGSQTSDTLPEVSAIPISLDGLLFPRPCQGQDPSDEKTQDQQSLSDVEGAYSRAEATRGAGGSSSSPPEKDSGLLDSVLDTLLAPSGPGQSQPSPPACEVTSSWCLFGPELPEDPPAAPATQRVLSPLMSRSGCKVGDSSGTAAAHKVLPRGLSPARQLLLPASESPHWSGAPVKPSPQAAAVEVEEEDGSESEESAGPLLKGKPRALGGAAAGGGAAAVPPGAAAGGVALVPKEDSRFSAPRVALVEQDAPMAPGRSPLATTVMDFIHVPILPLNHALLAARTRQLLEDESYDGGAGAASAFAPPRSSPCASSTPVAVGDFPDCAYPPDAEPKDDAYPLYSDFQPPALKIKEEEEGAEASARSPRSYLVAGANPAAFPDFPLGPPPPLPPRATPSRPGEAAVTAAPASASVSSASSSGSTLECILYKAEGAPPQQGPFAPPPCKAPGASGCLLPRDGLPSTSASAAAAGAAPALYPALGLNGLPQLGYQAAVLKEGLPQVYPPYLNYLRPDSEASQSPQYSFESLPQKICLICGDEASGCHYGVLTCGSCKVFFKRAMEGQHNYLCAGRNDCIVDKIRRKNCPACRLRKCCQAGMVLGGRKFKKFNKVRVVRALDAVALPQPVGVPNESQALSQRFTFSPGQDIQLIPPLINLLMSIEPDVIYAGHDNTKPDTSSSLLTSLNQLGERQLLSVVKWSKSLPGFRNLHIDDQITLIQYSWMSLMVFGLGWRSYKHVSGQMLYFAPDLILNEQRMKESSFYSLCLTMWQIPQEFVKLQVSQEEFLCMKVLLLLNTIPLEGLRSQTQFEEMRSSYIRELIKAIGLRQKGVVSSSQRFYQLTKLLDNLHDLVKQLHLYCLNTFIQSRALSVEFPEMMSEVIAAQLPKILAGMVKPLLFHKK
Protocol: as §2

[6] = target: T1, human progesterone receptor A (PR-A); assay: Antagonistic activity against promegestone, MTV-LUC reporter in SK-N-MC cells stably transfected with PR-A; type: cell-based; details: for selectivity in respect of one progesterone receptor isoform: PR-A versus PR-B; for selectivity in respect of one progesterone receptor isoform / Efficacy, PR-A / IC50: SK-N-MC cells; for Efficacy, PR-A / IC50: antagonistic activity vs 0.1 nmol/l promegestone, mean ± SD; for IC50: read-out: Potency IC50, PR-A; for times less potent than 11β-(4-acetylphenyl)-20,20,21,21,21-pentafluoro-17-hydroxy-19-nor-17α-pregna-4,9-dien-3-one at the progesterone receptors: antagonistic potency, figures match the ratio of the PR-A IC50 values
Protocol: as §2

[7] = target: T2, human progesterone receptor B (PR-B); assay: Antagonistic activity against promegestone, MTV-LUC reporter in SK-N-MC cells stably transfected with PR-B; type: cell-based; details: antagonistic activity vs 0.1 nmol/l promegestone, mean ± SD; for IC50: read-out: Potency IC50, PR-B
Protocol: as §2

[8] = HLM 1.0 mg/ml, test substance 50 μM

| recovered in the supernatant (RP-HPLC) ([3]; HLM 0.4 mg/ml, test substance 10 μM) [%] | EC50 ([4]; mean ± SD, read-out: Potency EC50, PR-A) [nM] | EC50 ([5]; mean ± SD, read-out: Potency EC50, PR-B) [nM] | Structure (SMILES) | Abortion rate [1] [%] | McPhail index [median] [2] | recovered in the supernatant (RP-HPLC) [3, 8] | Efficacy, PR-A [4] | Efficacy, PR-B [5] | selectivity in respect of one progesterone receptor isoform [6] | Efficacy, PR-A [6] [%] | IC50 [6] [nM] | times less potent than 11β-(4-acetylphenyl)-20,20,21,21,21-pentafluoro-17-hydroxy-19-nor-17α-pregna-4,9-dien-3-one at the progesterone receptors [6] | Efficacy, PR-B [7] [%] | IC50 [7] [nM] |
| --- | --- | --- | --- | --- | --- | --- | --- | --- | --- | --- | --- | --- | --- | --- |
| – | – | – | C[C@]12C[C@H](c3ccc(C(O)CO)cc3)C3=C4CCC(=O)C=C4CC[C@H]3[C@@H]1CC[C@@]2(O)C(F)(F)C(F)(F)F (mixture of isomers) [Example 1, 11β-[4-(1,2-dihydroxyethyl)phenyl]-20,20,21,21,21-pentafluoro-17-hydroxy-19-nor-17α-pregna-4,9-dien-3-one] | 100 | 1.0 | about 70% | no effect | no effect | Neither compound exhibits any selectivity | 100 ± 0 | 1.87 ± 0.23 | about 130 times | 100 ± 0 | 3.47 ± 0.46 |
| 60 | – | – | CC(=O)c1ccc([C@H]2C[C@@]3(C)[C@@H](CC[C@@]3(O)C(F)(F)C(F)(F)F)[C@@H]3CCC4=CC(=O)CCC4=C32)cc1 [11β-(4-acetylphenyl)-20,20,21,21,21-pentafluoro-17-hydroxy-19-nor-17α-pregna-4,9-dien-3-one, reference compound] | – | – | – | – | – | – | 100 ± 0 | 0.014 ± 0.01 | – | 100 ± 0 | 0.02 ± 0.01 |
| – | – | – | C[C@]12C[C@H](c3ccc(C(=O)CO)cc3)C3=C4CCC(=O)C=C4CC[C@H]3[C@@H]1CC[C@@]2(O)C(F)(F)C(F)(F)F [Example 3, 20,20,21,21,21-pentafluoro-17-hydroxy-11β-[4-(hydroxyacetyl)phenyl]-19-nor-17α-pregna-4,9-dien-3-one] | 100 | 1.0 | about 80% | no effect | no effect | Neither compound exhibits any selectivity | 100 ± 0 | 0.18 ± 0.06 | about 13 times | 100 ± 0 | 0.28 ± 0.08 |
| – | 0.23 ± 0.03 | 0.03 | CCC(=O)[C@@]1(C)CC[C@H]2[C@@H]3CCC4=CC(=O)CCC4=C3CC[C@@]21C [Promegestone, promegestone, reference compound] | – | – | – | 100% | 100% | – | – | – | – | – | – |
